Test results as given in patent US12077503B2, “Substituted cyclic amides and their use as herbicides” (FMC CORPORATION, priority 2015, dated 2024).

Columns and labels:
Format in all cases: in vivo
[1] = tested on: ragweed (common ragweed, Ambrosia elatior); test: Test A preemergence; conditions: for Ragweed plant response rating (0 to 100 scale, 0 is no effect, 100 is complete control): visual injury approx. 10 d
Method in brief: (§1)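 Each rating is a visual injury score from 0 to 100 given about 10 d after treatment, judged against untreated controls kept alongside in the greenhouse. In loam soil–sand blend, seeds got a preemergence directed soil spray, while postemergence plants were 2 to 10 cm tall at spraying.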

Kochia (Kochia scoparia) [2] = test: Test A preemergence; conditions: for Kochia plant response rating (0 to 100 scale, 0 is no effect, 100 is complete control): visual injury approx. 10 d
Method in brief: as §1

[3] = tested on: barnyardgrass (Echinochloa crus-galli); test: Test A preemergence; conditions: for Barnyardgrass plant response rating (0 to 100 scale, 0 is no effect, 100 is complete control): visual injury approx. 10 d
Method in brief: as §1

[4] = tested on: ryegrass, Italian (Italian ryegrass, Lolium multiflorum); test: Test A preemergence; conditions: for Ryegrass, Italian plant response rating (0 to 100 scale, 0 is no effect, 100 is complete control): visual injury approx. 10 d
Method in brief: as §1

[5] = tested on: pigweed (Amaranthus retroflexus); test: Test A preemergence; conditions: for Pigweed plant response rating (0 to 100 scale, 0 is no effect, 100 is complete control): visual injury approx. 10 d
[6] = tested on: giant foxtail (Setaria faberii); test: Test A preemergence; conditions: for Foxtail, Giant plant response rating (0 to 100 scale, 0 is no effect, 100 is complete control): visual injury approx. 10 d
Method in brief: as §1

[7] = tested on: sedge, umbrella (small-flower umbrella sedge, Cyperus difformis); test: Test B flooded paddy test; conditions: Flood, 250 g ai/ha; 0 to 100 scale where 0 is no effect and 100 is complete control; 13 to 15 d
Method in brief: (§2)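 Percent control, visually estimated after 13–15 d in the greenhouse on a 0–100 basis, compares treated pots with untreated ones; compound was put into paddy water 3 cm above the soil when plants had two leaves.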

[8] = tested on: barnyardgrass (Echinochloa crus-galli); test: Test B flooded paddy test; conditions: Flood, 250 g ai/ha; 0 to 100 scale where 0 is no effect and 100 is complete control; 13 to 15 d
Method in brief: as §2

[9] = tested on: ducksalad (Heteranthera limosa); test: Test B flooded paddy test; conditions: Flood, 250 g ai/ha; 0 to 100 scale where 0 is no effect and 100 is complete control; 13 to 15 d
Method in brief: as §2

rice (Oryra sativa) = test: Test B flooded paddy test; conditions: Flood, 250 g ai/ha; 0 to 100 scale where 0 is no effect and 100 is complete control; 13 to 15 d
Method in brief: as §2

[10] = tested on: ragweed (common ragweed, Ambrosia elatior); test: Test A postemergence
Method in brief: as §1

corn (Zea mays) = test: Test A postemergence
Method in brief: as §1

[11] = tested on: wheat (Triticum aestivum); test: Test A postemergence
Method in brief: as §1

[12] = tested on: blackgrass (Alopecurus myosuroides); test: Test A postemergence
Method in brief: as §1

Kochia (Kochia scoparia) [13] = test: Test A postemergence
Method in brief: as §1

[14] = tested on: barnyardgrass (Echinochloa crus-galli); test: Test A postemergence
Method in brief: as §1

[15] = tested on: ryegrass, Italian (Italian ryegrass, Lolium multiflorum); test: Test A postemergence
Method in brief: as §1

[16] = tested on: Galium (catchweed bedstraw, Galium aparine); test: Test A postemergence
Method in brief: as §1

[17] = tested on: pigweed (Amaranthus retroflexus); test: Test A postemergence
Method in brief: as §1

[18] = tested on: giant foxtail (Setaria faberii); test: Test A postemergence
Method in brief: as §1

[19] = 125 g ai/ha, Preemergence, visual injury after approximately 10 d, 0 to 100 scale where 0 is no effect and 100 is complete control
[20] = 125 g ai/ha, postemergence, visual rating after approx. 10 d, 0 to 100 scale (0 no effect, 100 complete control)
[21] = Postemergence, 500 g ai/ha, 0 to 100 scale where 0 is no effect and 100 is complete control
[22] = 500 g ai/ha, preemergence, 0 to 100 scale, 0 = no effect, 100 = complete control
[23] = 500 g ai/ha, postemergence, visual injury, 0 to 100 scale (0 no effect, 100 complete control), approx. 10 d
[24] = 125 g ai/ha, preemergence, 0 to 100 scale (0 no effect, 100 complete control)
[25] = 125 g ai/ha, postemergence, visual injury rating on 0 to 100 scale (0 no effect, 100 complete control), approx. 10 d
[26] = 500 g ai/ha, postemergence, 0 to 100 scale, 0 no effect, 100 complete control

`O=C1NCC(c2cc(C(F)(F)F)ccc2F)C1C(=O)Nc1cccc(F)c1F` (stereo not drawn) [Compound 594] was tested, and the “Plant response rating, Ragweed” value [1, 19] was 0, the “Ragweed plant response rating (0 to 100 scale, 0 is no effect, 100 is complete control)” value ([1]; Preemergence, 500 g ai/ha) was 20 and the “Plant response rating, Kochia” value (Kochia (Kochia scoparia) [2]; [19]) was 0. The “Kochia plant response rating (0 to 100 scale, 0 is no effect, 100 is complete control)” value (Kochia (Kochia scoparia) [2]; Preemergence, 500 g ai/ha) was 50, the “Plant response rating, Barnyardgrass” value [3, 19] was 90 and the “Barnyardgrass plant response rating (0 to 100 scale, 0 is no effect, 100 is complete control)” value ([3]; Preemergence, 500 g ai/ha) was 90. The “Plant response rating, Ryegrass, Italian” value [4, 19] was 30, the “Ryegrass, Italian plant response rating (0 to 100 scale, 0 is no effect, 100 is complete control)” value ([4]; Preemergence, 500 g ai/ha) was 90 and the “Plant response rating, Pigweed” value [5, 19] was 0. For the same compound, the “Pigweed plant response rating (0 to 100 scale, 0 is no effect, 100 is complete control)” value ([5]; Preemergence, 500 g ai/ha) was 20, the “Plant response rating, Foxtail, Giant” value [6, 19] was 90 and the “Foxtail, Giant plant response rating (0 to 100 scale, 0 is no effect, 100 is complete control)” value ([6]; Preemergence, 500 g ai/ha) was 90. The “Plant response rating, Sedge, Umbrella” value [7] was 0, the “Plant response rating, Barnyardgrass” value [8] was 70 and the “Plant response rating, Ducksalad” value [9] was 90. The “Plant response rating, Rice” value (rice (Oryra sativa)) was 35, the “Plant response rating, Ragweed” value [10, 20] was 0 and the “Plant response rating, Ragweed” value [10, 21] was 50. The “Plant response rating, Corn” value (corn (Zea mays); [20]) was 60, the “Plant response rating, Corn” value (corn (Zea mays); [21]) was 70 and the “Plant response rating, Wheat” value [11, 20] was 30. The “Plant response rating, Wheat” value [11, 21] was 70, the “Plant response rating, Blackgrass” value [12, 20] was 50 and the “Plant response rating, Blackgrass” value [12, 21] was 60. The “Plant response rating, Kochia” value (Kochia (Kochia scoparia) [13]; [20]) was 0, the “Plant response rating, Kochia” value (Kochia (Kochia scoparia) [13]; [21]) was 40 and the “Plant response rating, Barnyardgrass” value [14, 20] was 90. The “Plant response rating, Barnyardgrass” value [14, 21] was 90, the “Plant response rating, Ryegrass, Italian” value [15, 20] was 20 and the “Plant response rating, Ryegrass, Italian” value [15, 21] was 30. For the same compound, the “Plant response rating, Galium” value [16, 20] was 0, the “Plant response rating, Galium” value [16, 21] was 20 and the “Plant response rating, Pigweed” value [17, 20] was 0. For the same compound, the “Plant response rating, Pigweed” value [17, 21] was 40, the “Plant response rating, Foxtail, Giant” value [18, 20] was 90 and the “Plant response rating, Foxtail, Giant” value [18, 21] was 90.
In the case of `Cc1ccc(C2CNC(=O)C2C(=O)Nc2ccccc2F)cc1C(F)(F)F` (racemic) [Compound 678], the “Plant response rating, Ragweed” value [1, 19] is reported as 0, the “Plant response rating, Ragweed” value [1, 22] is reported as 0 and the “Plant response rating, Kochia” value (Kochia (Kochia scoparia) [2]; [19]) is reported as 0. The “Plant response rating, Kochia” value (Kochia (Kochia scoparia) [2]; [22]) was 30, the “Plant response rating, Barnyardgrass” value [3, 19] was 90 and the “Plant response rating, Barnyardgrass” value [3, 22] was 90. The “Plant response rating, Ryegrass, Italian” value [4, 19] was 0, the “Plant response rating, Ryegrass, Italian” value [4, 22] was 20 and the “Plant response rating, Pigweed” value [5, 19] was 0. For the same compound, the “Plant response rating, Pigweed” value [5, 22] was 0, the “Plant response rating, Foxtail, Giant” value [6, 19] was 80 and the “Plant response rating, Foxtail, Giant” value [6, 22] was 90. The “Plant response rating, Sedge, Umbrella” value [7] was 0, the “Plant response rating, Barnyardgrass” value [8] was 40 and the “Plant response rating, Ducksalad” value [9] was 75. The “Plant response rating, Rice” value (rice (Oryra sativa)) was 10, the “Plant response rating, Ragweed” value [10, 20] was 0 and the “Plant response rating, Ragweed” value [10, 23] was 0. The “Plant response rating, Corn” value (corn (Zea mays); [20]) was 10, the “Plant response rating, Corn” value (corn (Zea mays); [23]) was 30 and the “Plant response rating, Wheat” value [11, 20] was 0. The “Plant response rating, Wheat” value [11, 23] was 20, the “Plant response rating, Blackgrass” value [12, 20] was 30 and the “Plant response rating, Blackgrass” value [12, 23] was 60. For the same compound, the “Plant response rating, Kochia” value (Kochia (Kochia scoparia) [13]; [20]) was 0, the “Plant response rating, Kochia” value (Kochia (Kochia scoparia) [13]; [23]) was 0 and the “Plant response rating, Barnyardgrass” value [14, 20] was 70. For the same compound, the “Plant response rating, Barnyardgrass” value [14, 23] was 80, the “Plant response rating, Ryegrass, Italian” value [15, 20] was 0 and the “Plant response rating, Ryegrass, Italian” value [15, 23] was 20. For the same compound, the “Plant response rating, Galium” value [16, 20] was 0, the “Plant response rating, Galium” value [16, 23] was 30 and the “Plant response rating, Pigweed” value [17, 20] was 0. For the same compound, the “Plant response rating, Pigweed” value [17, 23] was 0, the “Plant response rating, Foxtail, Giant” value [18, 20] was 20 and the “Plant response rating, Foxtail, Giant” value [18, 23] was 60.
`CN1CC(c2ccccc2)C(C(=S)Nc2ccccc2F)C1=O` (stereo not drawn) [Compound 471] was tested, and the “Plant response rating, Ragweed” value [1, 19] was 0, the “Ragweed plant response rating (0 to 100 scale, 0 is no effect, 100 is complete control)” value ([1]; Preemergence, 500 g ai/ha) was 0 and the “Plant response rating, Kochia” value (Kochia (Kochia scoparia) [2]; [24]) was 0. The “Kochia plant response rating (0 to 100 scale, 0 is no effect, 100 is complete control)” value (Kochia (Kochia scoparia) [2]; Preemergence, 500 g ai/ha) was 0, the “Plant response rating, Barnyardgrass” value [3, 24] was 70 and the “Barnyardgrass plant response rating (0 to 100 scale, 0 is no effect, 100 is complete control)” value ([3]; Preemergence, 500 g ai/ha) was 90. For the same compound, the “Plant response rating, Ryegrass, Italian” value [4, 19] was 0, the “Ryegrass, Italian plant response rating (0 to 100 scale, 0 is no effect, 100 is complete control)” value ([4]; Preemergence, 500 g ai/ha) was 0 and the “Plant response rating, Pigweed” value [5, 19] was 0. For the same compound, the “Pigweed plant response rating (0 to 100 scale, 0 is no effect, 100 is complete control)” value ([5]; Preemergence, 500 g ai/ha) was 0, the “Plant response rating, Foxtail, Giant” value [6, 24] was 90 and the “Foxtail, Giant plant response rating (0 to 100 scale, 0 is no effect, 100 is complete control)” value ([6]; Preemergence, 500 g ai/ha) was 90. For the same compound, the “Plant response rating, Sedge, Umbrella” value [7] was 0, the “Plant response rating, Barnyardgrass” value [8] was 0 and the “Plant response rating, Ducksalad” value [9] was 70. The “Plant response rating, Rice” value (rice (Oryra sativa)) was 0, the “Ragweed plant response rating” value [10, 25] was 0 and the “Plant response rating, Ragweed” value [10, 21] was 0. The “Corn plant response rating” value (corn (Zea mays); [25]) was 0, the “Plant response rating, Corn” value (corn (Zea mays); [26]) was 0 and the “Wheat plant response rating” value [11, 25] was 0. For the same compound, the “Plant response rating, Wheat” value [11, 21] was 0, the “Blackgrass plant response rating” value [12, 25] was 0 and the “Plant response rating, Blackgrass” value [12, 26] was 0. For the same compound, the “Kochia plant response rating” value (Kochia (Kochia scoparia) [13]; [25]) was 0, the “Plant response rating, Kochia” value (Kochia (Kochia scoparia) [13]; [21]) was 0 and the “Barnyardgrass plant response rating” value [14, 25] was 50. For the same compound, the “Plant response rating, Barnyardgrass” value [14, 26] was 70, the “Ryegrass, Italian plant response rating” value [15, 25] was 0 and the “Plant response rating, Ryegrass, Italian” value [15, 21] was 0. The “Galium plant response rating” value [16, 25] was 0, the “Plant response rating, Galium” value [16, 21] was 0 and the “Pigweed plant response rating” value [17, 25] was 0. For the same compound, the “Plant response rating, Pigweed” value [17, 21] was 0, the “Foxtail, Giant plant response rating” value [18, 25] was 50 and the “Plant response rating, Foxtail, Giant” value [18, 21] was 70.
